Values after ≈ are worked out from the molar mass of the structure shown.
Assay: Aqueous solubility of the compound in H2O after 24 hrs incubation at 30 degC by LCMS analysis
Type: physicochemical
Conditions: buffer, 24 h

| solubility | Structure (SMILES) |
| --- | --- |
| 550 µg/mL (≈ 1860 µM) | Cc1ccc(Cl)c(Nc2ccccc2C(=O)O)c1Cl [MECLOFENAMIC ACID] |

Same assay, conditions: water

| Structure (SMILES) | solubility at 24 h |
| --- | --- |
| COc1ccc2cc([C@H](C)C(=O)OCC[S+](C)[O-])ccc2c1 (some centres undefined) | 270 µg/mL (≈ 843 µM) |
| CC(C)C[C@@H](/C=C/CC(=O)NC1CC(C)(C)N([O])C(C)(C)C1)NC(=O)OC(C)(C)C | 250 µg/mL (≈ 589 µM) |
| CCOC(=O)Nc1ccc2sc3c(c2c1)SCCNC3=O | 67 µg/mL (≈ 208 µM) |
| CC(C)C[C@@H](/C=C/CC(=O)NC1CC(C)(C)N([O])C(C)(C)C1)NC(=O)OCC[S+]([O-])CC1(C)COC1 (mixture of isomers) | 24000 µg/mL |
| COc1ccc2cc([C@H](C)C(=O)OCCSCC3(C)COC3)ccc2c1 | 13 µg/mL (≈ 34.7 µM) |

Next, values leading:

| solubility at 24 h | Structure (SMILES) |
| --- | --- |
| 63 µg/mL (≈ 155 µM) | COc1ccc2cc([C@H](C)C(=O)OCCS(=O)(=O)CC3(C)COC3)ccc2c1 |
| 820 µg/mL | COc1ccc2cc([C@H](C)C(=O)OCC[S+]([O-])CC3(C)COC3)ccc2c1 (mixture of isomers) |
| 440 µg/mL (≈ 968 µM) | CC1(C[S+]([O-])CCOC(=O)Nc2ccc3sc4c(c3c2)SCCNC4=O)COC1 (centres undefined) |
| 260 µg/mL | C[C@H](CCC(=O)OCC[S+]([O-])CC1(C)COC1)[C@H]1CC[C@H]2[C@@H]3CC[C@@H]4C[C@H](O)CC[C@]4(C)[C@H]3CC[C@]12C (mixture of isomers) |
| 1000 µg/mL (≈ 2190 µM) | Cc1cc(NS(=O)(=O)c2ccc(NC(=O)OCC[S+]([O-])CC3(C)COC3)cc2)no1 (centres undefined) |
| 250 µg/mL (≈ 548 µM) | Cc1ccc(Cl)c(Nc2ccccc2C(=O)OCC[S+]([O-])CC2(C)COC2)c1Cl (centres undefined) |
| 190 µg/mL (≈ 355 µM) | CC1(C[S+]([O-])CCOC(=O)N2CCN(c3cc4c(cc3F)c(=O)c(C(=O)O)cn4C3CC3)CC2)COC1 (centres undefined) |

Assay: Metabolic stability in mouse liver microsomes assessed as compound remaining after 1 hr
Type: ADME
Conditions: read-out: Stability

| Structure (SMILES) | remaining at 1 h |
| --- | --- |
| CC(C)C[C@@H](/C=C/CC(=O)NC1CC(C)(C)N([O])C(C)(C)C1)NC(=O)OCC[S+]([O-])CC1(C)COC1 (mixture of isomers) | 16% |
